Results published in patent publication US20250171404A1, “PCNA INHIBITORS AND USES THEREOF” (CITY OF HOPE, priority 2022, published 2025).

Columns and labels:
[1] = Oral pharmacokinetic study in dogs; assay type: in vivo, beagle dogs
Experimental: FIGS. 4A-4H. Pharmacokinetics and anti-tumor growth activity of AOH1996 in vivo. FIG. 4A: After oral administration, the plasma concentrations of AOH1996 from three male and three female ES1^e/SCID mice at the indicated time points were averaged and graphed ±S.D. The inset contains PK parameters determined by a standard noncompartmental method. FIG. 4B: A similar PK study of AOH1996 was performed in dogs. FIGS. 4C-4E: Mice bearing the xenograft tumors of neuroblastoma (FIG. 4C: SK-N-BE(2)c), breast cancer (FIG. 4D: MDA-MB-468), and small-cell lung cancer (FIG. 4E: H82) were given vehicle only (black) or 40 mg/kg of AOH1996 (grey) twice daily immediately after the first measurement. Tumor sizes were measured by a dial caliper each week. […] FIG. 4F: Animal body weight was monitored throughout the studies as an indicator of toxicity. […] FIG. 4G: The levels of phosphor-Chk1 (pChk1) and γH2A.X in SK-N-BE(2)c derived tumor samples were analyzed by IHC. […] The p values determined by the Log-rank (Mantel-Cox) test between combination treatment and each of the control groups are p=0.0003 (Combination vs. NoRx), p=0.005 (Combination vs. AOH1996 alone), and p=0.024 (Combination vs. CPT-11 alone).
Pharmacokinetic (PK) study in animals. […] Following removal of blood cells, plasma concentration of AOH1996 was determined by LC-MS/MS as described (Gu et al., 2018). […]

[2] = Compound metabolism in liver microsome; assay type: in vitro ADME, human; conditions: compared with AOH1160
Experimental: FIGS. 12A-12E. AOH1996 metabolism and in vivo pharmacokinetics. FIG. 12A: Illustration of AOH1160 degradation by carboxyl esterase-mediated cleavage or by hydroxylation. FIG. 12B: Chromatogram of liver microsome reaction mixtures of AOH1160 and AOH1996. The metabolites shown in FIG. 12A are indicated above their corresponding peaks. FIG. 12C: An aliquot of the liver microsome reaction mixture of AOH1996 was taken after various incubation times in the presence or absence of NADPH as the energy source. AOH1996 concentrations, determined by LC/MS-MS, as a percentage of the input concentration were graphed. FIG. 12D: After oral administration, the plasma concentrations of AOH1996 from three male and three female ES1e/SCID mice at the indicated time points were averaged and graphed ±S.D. The inset contains PK parameters determined by a standard noncompartmental method. FIG. 12E: A similar PK study of AOH1996 was performed in dogs.
Measurement of compound metabolism in liver microsome. AOH1160 analogs were incubated in human liver microsomes in the presence or absence of NADPH at 37° C. An aliquot of the reaction mixture was taken after various incubation times. Compound concentration was determined by liquid chromatography-tandem mass spectrometry (LC-MS/MS) as previously described (Gu et al., 2018).

[3] = system: MDA-MB-468 xenograft tumors; assay: Xenograft tumor model, breast cancer; assay type: in vivo, mice; conditions: 40 mg/kg twice daily, oral, vs vehicle
Experimental: FIGS. 4A-4H. Pharmacokinetics and anti-tumor growth activity of AOH1996 in vivo. FIG. 4A: After oral administration, the plasma concentrations of AOH1996 from three male and three female ES1^e/SCID mice at the indicated time points were averaged and graphed ±S.D. The inset contains PK parameters determined by a standard noncompartmental method. FIG. 4B: A similar PK study of AOH1996 was performed in dogs. FIGS. 4C-4E: Mice bearing the xenograft tumors of neuroblastoma (FIG. 4C: SK-N-BE(2)c), breast cancer (FIG. 4D: MDA-MB-468), and small-cell lung cancer (FIG. 4E: H82) were given vehicle only (black) or 40 mg/kg of AOH1996 (grey) twice daily immediately after the first measurement. Tumor sizes were measured by a dial caliper each week. Tumor volumes (0.4×L×W^2) were averaged and graphed ±S.E. (*, P<0.01). FIG. 4F: Animal body weight was monitored throughout the studies as an indicator of toxicity. […] FIG. 4G: The levels of phosphor-Chk1 (pChk1) and γH2A.X in SK-N-BE(2)c derived tumor samples were analyzed by IHC. […] The p values determined by the Log-rank (Mantel-Cox) test between combination treatment and each of the control groups are p=0.0003 (Combination vs. NoRx), p=0.005 (Combination vs. AOH1996 alone), and p=0.024 (Combination vs. CPT-11 alone).
In vivo tumor model. […] Tumor size and animal weight were measured weekly. […]

COc1cccc(Oc2ccccc2NC(=O)CNC(=O)c2cccc3ccccc23)c1 [AOH1996, N-(2-((2-(3-methoxyphenoxy)phenyl)amino)-2-oxoethyl)-1-naphthamide]
PK parameters in dogs [1]: Comparable PK parameters
metabolic stability [2]: metabolically more stable than AOH1160
tumor burden [3]: significantly reduced tumor burden
